System: 242566-281-R-J2-PDC complex spheroid viability
Experiment: Anticancer human tumor 242566-281-R-J2-PDC patient-derived pancreatic carcinoma cell line growth inhibition [RAS]
Conditions: for IC50: curve of first compound; for viability, T/C: stronger effect = lower value
Excerpt: RAS pathway inhibitors in Combinations in Complex Spheroids
A high-throughput screen of multi-cell type tumor spheroids was designed to identify active combinations of RAS pathway inhibitors and targeted small molecules. Complex spheroids include a stromal component modeled by human endothelial cells (HUVEC) and fibroblasts modeled by human mesenchymal stem cells (MSCs). The concentration ranges selected for each drug and investigational agent were based upon clinically achievable concentrations if the clinical Cmax of the agent was known.
Compounds. The drugs and investigational agents: abemaciclib (NSC768073), cobimetinib (NSC768068), divarasib (GDC6063, NSC841802), docetaxel (NSC628503), GDC-1971 (RLY-1971, NSC841576), gemcitabine (NSC613327), inavolisib (NSC800729), ipatasertib (NSC767898), KB-0742 (NSC834161), MRTX-1133 (NSC836407), osimertinib (NSC779217), RMC-4630 (NSC839698), RMC-6236 (NSC851965), RMC-6291 (NSC852671), Ro-3306 (NSC812927), sapanisertib (NSC764658), SN-38 (NSC673596), staurosporine (NSC755774), SY5609 (NSC837396), and tovorafenib (DAY101, NSC766906), were obtained from the National Cancer Institute (NCI) Developmental Therapeutics Program Chemical Repository. The FDA-approved anticancer drug set is available from the NCI Developmental Therapeutics Program. […] The stock solutions were prepared in dimethyl sulfoxide (DMSO, Sigma-Aldrich, St. Louis, MO, cat. D2650) at 800-fold the tested concentration and stored at -70 degrees C prior to their use. All drugs and investigational agents were tested over a range starting from a high concentration at or near the clinical Cmax and decreasing in half-log increments. If the clinical Cmax for an agent had not been determined, the highest concentration tested was 10 microM.
Cell Culture. All cells were maintained in an incubator at 37 degrees C and 5% CO2 with 95% humidity. The PDC lines were cultured according to standard operating procedures established by the NCI PDMR. All PDCs were thawed and cultured in Matrigel-coated flasks prepared with a working solution of 1X Ham's F-12 nutrient mix, without supplementation (Invitrogen, Waltham, MA, cat. 11765054), 100 U/mL penicillin-streptomycin (Invitrogen, cat. 15140122), and 2.5% Matrigel (Corning Inc., Corning, NY, cat. 354248) for the first three passages. The 362531-283-R-J2-PDC and 782815-120-R-J1-PDC lines were cultured in 6C/Colon 1B media, which includes advanced DMEM/F-12 (Thermo Fisher Scientific, cat. 12634028), 10 mM HEPES (Thermo Fisher Scientific, cat. 15630080), 1X GlutaMAX supplement (Thermo Fisher Scientific, cat. 35050061), 0.1 mg/mL primocin (InvivoGen, San Diego, CA, cat. ant-pm-2), 10% defined fetal bovine serum, heat inactivated (HyClone Laboratories Inc., Logan, UT, cat. SH30070.03HI), 50% L-WRN conditioned media (ATCC, cat. CRL-3276), 1.25 mM N-Acetyl-L-cysteine (Sigma-Aldrich, cat. A9165), 10 mM nicotinamide (Sigma-Aldrich, cat. N0636), 1X B-27 supplement (Thermo Fisher Scientific, cat. 17504044), 1X N-2 supplement (Thermo Fisher Scientific, cat. 17502048), 50 ng/mL human EGF (Thermo Fisher Scientific, cat. PHG0311), and 10 microM Y-27632 dihydrochloride (Tocris Bioscience, cat. 1254). The K12877-001-R-J1-PDC line was cultured in 6I media, which includes all 6C/Colon 1B media plus 10 ng/mL human FGF-10 (PeproTech, cat. 100-26), 1 ng/mL human FGF-2 (PeproTech, cat. 100-18B), 1 µM prostaglandin E2 (Tocris Bioscience, cat. 2296), […] hydrocortisone (Sigma-Aldrich, cat. H4001), and […] bovine insulin (Sigma-Aldrich, cat. I6634). The K86415-001-R-J1-PDC line was cultured in 6D media, which includes all 6C/Colon 1B media components minus the L-WRN conditioned media. The 485176-168-R4-J1-PDC was cultured in PANC media, which includes all 6C/Colon 1B media plus 100 ng/mL human FGF-10 (PeproTech, cat. 100-26), 500 nM SB-431542 (Selleckchem, cat. S1067), and 10 nM gastrin (Tocris Bioscience, cat. 3006). […]

[1] = second compound 0.0316 µM, first compound 0.0316 µM
[2] = second compound 0.0316 µM, first compound 0.1 µM
[3] = second compound 0.0316 µM, first compound 0.316 µM
[4] = second compound 0.0316 µM, first compound 1 µM
[5] = second compound 0.0316 µM, first compound 3.16 µM
[6] = second compound 0.0316 µM, first compound 10 µM
[7] = second compound 0.1 µM, first compound 0.0316 µM
[8] = second compound 0.1 µM, first compound 0.1 µM
[9] = second compound 0.1 µM, first compound 0.316 µM
[10] = second compound 0.1 µM, first compound 1 µM
[11] = second compound 0.1 µM, first compound 3.16 µM
[12] = second compound 0.1 µM, first compound 10 µM
[13] = second compound 0.316 µM, first compound 0.0316 µM
[14] = second compound 0.316 µM, first compound 0.1 µM
[15] = second compound 0.316 µM, first compound 0.316 µM
[16] = second compound 0.316 µM, first compound 1 µM
[17] = second compound 0.316 µM, first compound 3.16 µM
[18] = second compound 0.316 µM, first compound 10 µM
[19] = second compound 1 µM, first compound 0.0316 µM
[20] = second compound 1 µM, first compound 0.1 µM
[21] = second compound 1 µM, first compound 0.316 µM
[22] = second compound 1 µM, first compound 1 µM
[23] = second compound 1 µM, first compound 3.16 µM
[24] = second compound 1 µM, first compound 10 µM
[25] = second compound 3.16 µM, first compound 0.0316 µM
[26] = second compound 3.16 µM, first compound 0.1 µM
[27] = second compound 3.16 µM, first compound 0.316 µM
[28] = second compound 3.16 µM, first compound 1 µM
[29] = second compound 3.16 µM, first compound 3.16 µM
[30] = second compound 3.16 µM, first compound 10 µM
[31] = second compound 10 µM, first compound 0.0316 µM
[32] = second compound 10 µM, first compound 0.1 µM
[33] = second compound 10 µM, first compound 0.316 µM
[34] = second compound 10 µM, first compound 1 µM
[35] = second compound 10 µM, first compound 3.16 µM
[36] = second compound 10 µM, first compound 10 µM
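Also: spheroids exposed to compound for 7 days before readout.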
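For viability, T/C in this document: 100% = DMSO vehicle control wells.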

CC(C)NCC(C(=O)N1CCN(c2ncnc3c2C(C)CC3O)CC1)c1ccc(Cl)cc1 (centres undefined) + C#Cc1c(F)ccc2cc(O)cc(-c3ncc4c(N5CC6CCC(C5)N6)nc(OCC56CCCN5CC(F)C6)nc4c3F)c12 was tested, and the IC50 (second compound 0.0316 µM) was 7270 nM, the IC50 (second compound 0.1 µM) was 2950 nM and the IC50 (second compound 0.316 µM) was 1750 nM. It also gave an IC50 (second compound 1 µM) of 701 nM, an IC50 (second compound 3.16 µM) of 404 nM and an IC50 (second compound 10 µM) of 392 nM. For the same molecule, the viability, T/C [1] was 74.9%, the viability, T/C [2] was 116% and the viability, T/C [3] was 86.2%. It also gave a viability, T/C [4] of 84.8%, a viability, T/C [5] of 66.6% and a viability, T/C [6] of 43.7%. The viability, T/C [7] was 97.8%, the viability, T/C [8] was 78.6% and the viability, T/C [9] was 74.5%. For the same molecule, the viability, T/C [10] was 54.8%, the viability, T/C [11] was 58% and the viability, T/C [12] was 34.5%. The viability, T/C [13] was 81.2%, the viability, T/C [14] was 81.1% and the viability, T/C [15] was 64.9%. For the same molecule, the viability, T/C [16] was 55%, the viability, T/C [17] was 45.8% and the viability, T/C [18] was 23.9%. It also gave a viability, T/C [19] of 71.8%, a viability, T/C [20] of 68.3% and a viability, T/C [21] of 59.4%. The viability, T/C [22] was 41.4%, the viability, T/C [23] was 37.5% and the viability, T/C [24] was 18.4%. For the same molecule, the viability, T/C [25] was 62.8%, the viability, T/C [26] was 64.2% and the viability, T/C [27] was 53.9%. The viability, T/C [28] was 34.5%, the viability, T/C [29] was 24.8% and the viability, T/C [30] was 16.4%. It also gave a viability, T/C [31] of 61.6%, a viability, T/C [32] of 59.6% and a viability, T/C [33] of 52.7%. It also gave a viability, T/C [34] of 38.1%, a viability, T/C [35] of 22% and a viability, T/C [36] of 14.3%.
Work on CC(Nc1ccc2c(c1)OCCn1cc(N3C(=O)OCC3C(F)F)nc1-2)C(N)=O (centres undefined) + C#Cc1c(F)ccc2cc(O)cc(-c3ncc4c(N5CC6CCC(C5)N6)nc(OCC56CCCN5CC(F)C6)nc4c3F)c12 yielded an IC50 (second compound 0.0316 µM) of 437 nM, an IC50 (second compound 0.1 µM) of 184 nM and an IC50 (second compound 0.316 µM) of 106 nM. For the same molecule, the IC50 (second compound 1 µM) was 60.3 nM, the IC50 (second compound 3.16 µM) was < 31.6 nM and the IC50 (second compound 10 µM) was < 31.6 nM. For the same molecule, the viability, T/C [1] was 101%, the viability, T/C [2] was 82.8% and the viability, T/C [3] was 56.6%. The viability, T/C [4] was 32.5%, the viability, T/C [5] was 22.3% and the viability, T/C [6] was 14.2%. It also gave a viability, T/C [7] of 75%, a viability, T/C [8] of 63.7% and a viability, T/C [9] of 37.3%. For the same molecule, the viability, T/C [10] was 22.4%, the viability, T/C [11] was 13.2% and the viability, T/C [12] was 8.11%. For the same molecule, the viability, T/C [13] was 68%, the viability, T/C [14] was 51.2% and the viability, T/C [15] was 24.8%. The viability, T/C [16] was 8.79%, the viability, T/C [17] was 7.1% and the viability, T/C [18] was 4.15%. It also gave a viability, T/C [19] of 58.1%, a viability, T/C [20] of 43.7% and a viability, T/C [21] of 23%. The viability, T/C [22] was 9.54%, the viability, T/C [23] was 6.78% and the viability, T/C [24] was 3.29%. It also gave a viability, T/C [25] of 46.5%, a viability, T/C [26] of 39.2% and a viability, T/C [27] of 14%. It also gave a viability, T/C [28] of 9.39%, a viability, T/C [29] of 5.47% and a viability, T/C [30] of 3.71%. For the same molecule, the viability, T/C [31] was 44%, the viability, T/C [32] was 32.7% and the viability, T/C [33] was 19.8%. For the same molecule, the viability, T/C [34] was 6.3%, the viability, T/C [35] was 5.27% and the viability, T/C [36] was 2.24%.

— PubChem BioAssay AID2060910 (Molecular Pharmacology Branch, DTP, NCI, 2025)
